The record followed here is patent publication US20250019385A1, “SPIROCYCLIC ANNULATED 2-AMINO-3-CYANO THIOPHENES AND DERIVATIVES FOR THE TREATMENT OF CANCER” (Boehringer Ingelheim International GmbH, priority 2023, published 2025).

As usually defined, the pIC50 is the negative decadic logarithm of the IC50, by convention in mol/L. What is called solubility is how much of the substance goes into solution per volume.

Molecules are shown by their SMILES. pIC50: −log10 of the molar value. Values after ≈ are worked out from the molar mass of the structure shown. Bounds are passed on as bounds.

One data set has as its system LOVO cells. Description: LOVO CTG proliferation assay (120 h) (CRC, G13D). The class given is cell-based. Conditions: Homo sapiens. The method, boiled down: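 Cells seeded at 1000/well in DMEM + 10% FCS, dosed next day with a logarithmic compound series, technical duplicates, for 120 h. Viability by CellTiter-Glo luminescence as percent of DMSO control; IC50 from four-parameter non-linear regression.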
For the compound `CO[C@H]1CCN(C)[C@@H]1[C@H](C)Oc1nc(-c2onc3c2CCC[C@@]32CCCc3sc(N)c(C#N)c32)nc2c1n(C)c(=O)n2[C@@H]1CCCOC1` [I-6], the pIC50 was 8.52.
The compound `C[C@H](Oc1nc(-c2noc3c2CCC[C@@]32CCCc3sc(N)c(C#N)c32)nc2c1COC[C@]21CCOC1)[C@@H]1CCCN1C` [II-8] had a negative-log IC50 (pIC50) of 8.70.
In turn, `CO[C@@H]1C[C@@H]([C@H](C)Oc2nc(-c3onc4c3CCC[C@@]43CCCc4sc(N)c(C#N)c43)nc3c2n(C)c(=O)n3[C@@]23COC[C@@H]2C3)N(C)C1` [I-46] gave a pIC50 of 7.68.
With `C[C@H](Oc1nc(-c2noc3c2CCC[C@@]32CCCc3sc(N)c(C#N)c32)nc2c1CNC[C@]21CCOC1)[C@@H]1CCCN1C` [II-15], the negative-log IC50 (pIC50) is 7.77. The pIC50 values of the last two compounds are within 0.2 log units of each other.

The target of the next data set is KRAS (G12D)::SOS1 protein-protein interaction (Homo sapiens (Human), UniProt P01116, G12D). Description: KRAS::SOS1 AlphaScreen binding assay (KRAS G12D). Conditions: GDP. An outline of the steps: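 AlphaScreen assay with KRAS G12D (1-169, 6His/avi-tagged, 10 nM), GST-SOS1 564-1049 (5 nM) and GDP (10 μM) in PBS, 0.1% BSA, 0.05% Tween 20; compound up to 100 μM top concentration, eleven fivefold dilutions in duplicate. After 30 min, glutathione acceptor and streptavidin donor beads (10 μg/mL each) were added and signal read after a further 60 min at room temperature in the dark; IC50 from 4-parameter logistic fit.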
KRAS (G12D)::SOS1 protein-protein interaction, sequence (P01116 other isoform, or with tags, fused parts or gaps G12D): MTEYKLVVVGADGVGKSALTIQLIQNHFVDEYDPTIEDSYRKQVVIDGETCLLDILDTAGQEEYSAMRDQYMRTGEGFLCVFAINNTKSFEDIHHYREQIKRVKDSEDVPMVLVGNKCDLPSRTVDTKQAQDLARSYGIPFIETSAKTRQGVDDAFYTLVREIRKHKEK
In general terms: Bead proximity is the source of the signal in Alpha formats.
In turn, `CO[C@H]1CCN(C)[C@@H]1[C@H](C)Oc1nc(-c2onc3c2CCC[C@@]32CCCc3sc(N)c(C#N)c32)nc2c1n(C)c(=O)n2[C@@H]1CCCOC1` [I-6] gave a negative-log IC50 (pIC50) of 8.70.
For the compound `C[C@H](Oc1nc(-c2noc3c2CCC[C@@]32CCCc3sc(N)c(C#N)c32)nc2c1COC[C@]21CCOC1)[C@@H]1CCCN1C` [II-8], the pIC50 is 9.00. Compared with the last compound, the pIC50 is 0.30 log units higher.
In turn, `CO[C@@H]1C[C@@H]([C@H](C)Oc2nc(-c3onc4c3CCC[C@@]43CCCc4sc(N)c(C#N)c43)nc3c2n(C)c(=O)n3[C@@]23COC[C@@H]2C3)N(C)C1` [I-46] had a pIC50 of 9.00.
As for `C[C@H](Oc1nc(-c2noc3c2CCC[C@@]32CCCc3sc(N)c(C#N)c32)nc2c1CNC[C@]21CCOC1)[C@@H]1CCCN1C` [II-15], the negative logarithm of the IC50 (pIC50) is 9.00.

Tested on in the next data set: not listed separately
Description: Plasma protein binding assay (PPB), equilibrium dialysis. The class given is in vitro ADME. Conditions: bovine, 10% FCS in PBS, read-out: PPB 10% FCS (% fu). The method, boiled down: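 Compound at 1-10 μmol/L in 10% FCS in PBS was dialysed against PBS (with or without dextran) across a 5-10 kg/mol cut-off membrane for 3-5 h at 37° C. Both chambers were protein-precipitated and compound was quantified by LC-MS. The unbound fraction was calculated from the serum-side and buffer-side concentrations.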
(In general: In equilibrium dialysis free small molecules cross a membrane that holds back macromolecules.)
As for `CO[C@H]1CCN(C)[C@@H]1[C@H](C)Oc1nc(-c2onc3c2CCC[C@@]32CCCc3sc(N)c(C#N)c32)nc2c1n(C)c(=O)n2[C@@H]1CCCOC1` [I-6], the fraction unbound was 0.17.
Regarding `C[C@H](Oc1nc(-c2noc3c2CCC[C@@]32CCCc3sc(N)c(C#N)c32)nc2c1COC[C@]21CCOC1)[C@@H]1CCCN1C` [II-8], the fraction unbound worked out at 0.13.
Turning to `CO[C@@H]1C[C@@H]([C@H](C)Oc2nc(-c3onc4c3CCC[C@@]43CCCc4sc(N)c(C#N)c43)nc3c2n(C)c(=O)n3[C@@]23COC[C@@H]2C3)N(C)C1` [I-46], the fraction unbound amounted to 0.32.
As for `C[C@H](Oc1nc(-c2noc3c2CCC[C@@]32CCCc3sc(N)c(C#N)c32)nc2c1CNC[C@]21CCOC1)[C@@H]1CCCN1C` [II-15], the fraction unbound was determined as 0.3.

Tested on in the next data set: not listed separately
Description: Solubility measurement (DMSO solution precipitation method). The class given is physicochemical. Conditions: aqueous buffer, kinetic from dmso stock, McIlvaine buffer pH 4.5, 24 h, read-out: solubility pH 4.5. An outline of the steps: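 A 10 mM DMSO stock was diluted to 250 μM final in McIlvaine buffer at pH 4.5 or 6.8, then shaken 24 h at ambient temperature. After filtering off precipitate, filtrate concentration was quantified by LC-UV against a fully dissolved reference in acetonitrile/water (1:1).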
For the compound `CO[C@H]1CCN(C)[C@@H]1[C@H](C)Oc1nc(-c2onc3c2CCC[C@@]32CCCc3sc(N)c(C#N)c32)nc2c1n(C)c(=O)n2[C@@H]1CCCOC1` [I-6], the solubility at 24 h was above 164 µg/mL.
Take `C[C@H](Oc1nc(-c2noc3c2CCC[C@@]32CCCc3sc(N)c(C#N)c32)nc2c1COC[C@]21CCOC1)[C@@H]1CCCN1C` [II-8]: the solubility at 24 h is above 142 µg/mL.
Regarding `CO[C@@H]1C[C@@H]([C@H](C)Oc2nc(-c3onc4c3CCC[C@@]43CCCc4sc(N)c(C#N)c43)nc3c2n(C)c(=O)n3[C@@]23COC[C@@H]2C3)N(C)C1` [I-46], the solubility at 24 h was above 150 µg/mL.
Still for that read-out and setting: the result for `C[C@H](Oc1nc(-c2noc3c2CCC[C@@]32CCCc3sc(N)c(C#N)c32)nc2c1CNC[C@]21CCOC1)[C@@H]1CCCN1C` [II-15] reads above 147 µg/mL.

Still in this data set, the particulars now being: aqueous buffer, kinetic from dmso stock, McIlvaine buffer pH 6.8, 24 h, read-out: solubility pH 6.8.
With `CO[C@H]1CCN(C)[C@@H]1[C@H](C)Oc1nc(-c2onc3c2CCC[C@@]32CCCc3sc(N)c(C#N)c32)nc2c1n(C)c(=O)n2[C@@H]1CCCOC1` [I-6], the solubility at 24 h is below 1 µg/mL.
As to `C[C@H](Oc1nc(-c2noc3c2CCC[C@@]32CCCc3sc(N)c(C#N)c32)nc2c1COC[C@]21CCOC1)[C@@H]1CCCN1C` [II-8], the solubility at 24 h is above 143 µg/mL.
Turning to `CO[C@@H]1C[C@@H]([C@H](C)Oc2nc(-c3onc4c3CCC[C@@]43CCCc4sc(N)c(C#N)c43)nc3c2n(C)c(=O)n3[C@@]23COC[C@@H]2C3)N(C)C1` [I-46], the solubility at 24 h is 67 µg/mL (≈ 99.6 µM).
For the compound `C[C@H](Oc1nc(-c2noc3c2CCC[C@@]32CCCc3sc(N)c(C#N)c32)nc2c1CNC[C@]21CCOC1)[C@@H]1CCCN1C` [II-15], the solubility at 24 h was above 148 µg/mL.

The test system of the next data set is NCI-H358 cells. Description: NCI-H358 CTG proliferation assay (120 h) (NSCLC, G12C). The class given is cell-based. Conditions: Homo sapiens. An outline of the steps: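 Cells seeded at 200 per well in RPMI-1640 with 10% FCS, left overnight, then treated with a logarithmic dose series in duplicate for 120 h. Viability measured by CellTiter-Glo luminescence as percent of DMSO controls; IC50 from four-parameter non-linear regression.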
Take `CO[C@H]1CCN(C)[C@@H]1[C@H](C)Oc1nc(-c2onc3c2CCC[C@@]32CCCc3sc(N)c(C#N)c32)nc2c1n(C)c(=O)n2[C@@H]1CCCOC1` [I-6]: the pIC50 is 8.40.
The same measure, in the same setting: then `C[C@H](Oc1nc(-c2noc3c2CCC[C@@]32CCCc3sc(N)c(C#N)c32)nc2c1COC[C@]21CCOC1)[C@@H]1CCCN1C` [II-8], with 9.00.
As for `CO[C@@H]1C[C@@H]([C@H](C)Oc2nc(-c3onc4c3CCC[C@@]43CCCc4sc(N)c(C#N)c43)nc3c2n(C)c(=O)n3[C@@]23COC[C@@H]2C3)N(C)C1` [I-46], the pIC50 is 8.22.
The compound `C[C@H](Oc1nc(-c2noc3c2CCC[C@@]32CCCc3sc(N)c(C#N)c32)nc2c1CNC[C@]21CCOC1)[C@@H]1CCCN1C` [II-15] showed a negative logarithm of the IC50 (pIC50) of 9.00.
